Data reported in patent US7893031B2, “Neuronal differentiation inhibitor peptide and use thereof” (Toagosei Co., Ltd., priority 2005, dated 2011).
No end group written: not given here.

System: adipose stem cells procured from humans
Assay: Evaluation of neuronal differentiation inhibitor activity of the synthetic peptides (immunostaining for MAPs and NeuN neuron markers, confocal laser microscopy)
Assay type: cell-based
Details: culture of human adipose stem cells, 24 hours after peptide addition; for degree of neuronal differentiation (neuron markers MAPs and NeuN) when added together with VHL peptide: sample peptide added together with VHL peptide (comparative sample 1), each about 100 ng/mL
Experimental: Each sample obtained in example 1 was analyzed for the neuronal differentiation inhibitor activity.
In particular, each sample peptide together with the peptide of comparative sample 1 (hereinafter referred to as VHL peptide) was added to and incubated in a culture of adipose stem cells procured from humans. The addition concentration of each peptide was about 100 ng/mL. For comparison, a culture containing VHL peptide alone was incubated in a similar manner.
At 24 hours after peptide addition, evaluation was carried out by a standard immune antibody procedure. Specifically, MAPs ([…]) and NeuN (neuronal nuclei) were added as neuron markers, and the degree of neuronal differentiation was evaluated by confocal laser microscopy. MAPs is a marker that can stain (detect) broadly, from relatively immature neurons to mature neurons. NeuN is a marker that can specifically stain (detect) mature neurons.

Row | Substance | degree of neuronal differentiation (neuron markers MAPs and NeuN) when added together with VHL peptide | degree of neuronal differentiation (neuron markers MAPs and NeuN) (VHL peptide alone, about 100 ng/mL)
1 | YARAAARQARA-SLQTLCEISLMRNHS (YARAAARQARASLQTLCEISLMRNHS; not fully specified (C-terminus); printed as YARAAARQARA-SLQTLCEISLMRNHS) [Sample 3, PTD4 domain plus 15 N-terminal residues of the BC-box of S. cerevisiae elongin-A] | no significant neuronal differentiation was observed | 
2 | YARAAARQARA-TLHQQCIRVLKNNID (YARAAARQARATLHQQCIRVLKNNID; not fully specified (C-terminus); printed as YARAAARQARA-TLHQQCIRVLKNNID) [Sample 1, PTD4 domain plus 15 N-terminal residues of the BC-box of human elongin-A] | no significant neuronal differentiation was observed | 
3 | YARAAARQARA-TLKERCLQVVRSLVK (YARAAARQARATLKERCLQVVRSLVK) [VHL peptide, reference compound] |  | significant neuronal differentiation
4 | YARAAARQARA-TLVSLCQTVLMSHID (YARAAARQARATLVSLCQTVLMSHID; not fully specified (C-terminus); printed as YARAAARQARA-TLVSLCQTVLMSHID) [Sample 2, PTD4 domain plus 15 N-terminal residues of the BC-box of C. elegans elongin-A] | no significant neuronal differentiation was observed | 
